Experimental data as given in US12741974B2, “Compounds constituting C20-modified salinomycin derivatives, a method for obtaining the same, a composition containing the same, a use of said compounds and a method for obtaining an intermediate product” (FILECLO SP. Z O.O., priority 2020, dated 2021).

Assays:
Type in all cases: cell-based
[1] = tested on: MV-4-11 (human biphenotypic leukaemia); experiment: In vitro cytotoxicity test, MTT assay, 72 h incubation with compound; conditions: for IC50: MV-4-11 human biphenotypic leukaemia, MTT, 72 h; for SI MV-4-11: selectivity coefficient, BALB/3T3 versus MV-4-11
Experimental: (§1) In vitro cytotoxicity tests were performed according to the procedure described below. […] The solvent for further dilutions was a culture medium.
(§2) The experiments were repeated at least 3 times.
After 4 hours of incubation at 37° C., 80 μL of lysis buffer was added to each well.

[2] = tested on: BALB/3T3 (normal murine fibroblasts); experiment: In vitro cytotoxicity test on normal cells, SRB assay, 72 h incubation with compound; conditions: read-out: IC50 BALB/3T3
Experimental: (§3) Normal murine BALB/3T3 fibroblasts were also used in the tests for determining the selectivity coefficients of the compounds used in the assays.
as §1, §2

Hs294T (human melanoma) = experiment: In vitro cytotoxicity test, SRB assay, 72 h incubation with compound; conditions: for IC50: Hs294T human melanoma, SRB, 72 h; for SI Hs294T: selectivity coefficient, BALB/3T3 versus Hs294T
Experimental: as §1, §2

cancer cells = experiment: In vitro cytotoxicity tests, summary statements over the cancer cell lines; conditions: in words; for anti-proliferative effect compared to the parent compound: versus salinomycin
Experimental: The following cancer cell lines were used in in vitro studies: • B16-F0 (murine melanoma), • Hs294T (human melanoma), • LoVo (drug-sensitive human colon cancer), • LoVo/DX (drug-resistant human colon cancer), • MCF-7 (human breast cancer), • MV-4-11 (human biphenotypic leukaemia).
as §3
In vitro cytotoxicity tests were performed according to the procedure described below. Stock solutions of the test compounds at 10 mg/mLh were prepared for each experiment ex tempore by dissolving 1 mg of the preparation in 100 μL of dimethylsulfoxide (DMSO). The solvent for further dilutions was a culture medium. Compounds were tested at concentration ranges of 100 to 0.00001 μg/mLh (for the B16-F0 and Hs294T cell lines) and 100 to 0.1 μg/mLh (for the LoVo, LoVo/DX, MCF-7, MV-4-11 and BALB/3T3 cell lines).
An MTT tetrazolium salt reduction assay [as per: Wietrzyk et al., Anti-cancer drugs, 2007, 18, 447-457] was performed for MV-4-11 cells (human biphenotypic leukaemia) to evaluate the metabolic activity of cancer cells. On the other hand, to determine the anti-proliferative activity of all tested compounds against B16-F0 (murine melanoma), Hs294T (human melanoma), LoVo (drug-sensitive human colon cancer), LoVo/DX (drug-resistant human colon cancer), MCF-7 (human breast cancer) and BALB/3T3 (normal mouse fibroblasts) cell lines, the SRB colorimetric assay was used [as per: Skehan et al., Journal of the National Cancer Institute, 1990, 82, 1107-1112] measuring the inhibition of target cell proliferation based on the amount of cellular protein measured. In each experiment, samples containing specific concentrations of the test compound were applied to 96-well plates in triplicate. The experiments were repeated at least 3 times.
When calculating the mean absorbance value for a set of wells (untreated cells, cells treated with a specific compound at a specific concentration, control of medium alone), outliers were rejected using a 10% coefficient of variation CV.

[3] = In vitro cytotoxicity test on normal cells, SRB assay, 72 h incubation with compound; conditions: mouse, balb/3t3 cells, normal murine fibroblasts, read-out: IC50 BALB/3T3
Experimental: as §3, §1, §2

[4] = tested on: LoVo (drug-sensitive human colon cancer); experiment: In vitro cytotoxicity test, SRB assay, 72 h incubation with compound; conditions: for IC50: LoVo drug-sensitive human colon cancer, SRB, 72 h; for SI LoVo: selectivity coefficient, BALB/3T3 versus LoVo
Experimental: as §1, §2

[5] = tested on: LoVo/DX (drug-resistant human colon cancer); experiment: as above; conditions: for IC50: LoVo/DX drug-resistant human colon cancer, SRB, 72 h; for RI: drug resistance coefficient, LoVo/DX versus LoVo, 4320 min; for SI LoVo/DX: selectivity coefficient, BALB/3T3 versus LoVo/DX
Experimental: as §1, §2

B16-F0 (murine melanoma) = experiment: as above; conditions: for IC50: B16-F0 murine melanoma, SRB, 72 h; for SI B16-F0: selectivity coefficient, BALB/3T3 versus B16-F0
Experimental: as §1, §2

[6] = tested on: MCF-7 (human breast cancer); experiment: as above; conditions: for IC50: MCF-7 human breast cancer, SRB, 72 h; for SI MCF-7: selectivity coefficient, BALB/3T3 versus MCF-7
Experimental: as §1, §2

SMILES: CC[C@@H](C(=O)[C@@H](C)[C@@H](O)[C@H](C)[C@@H]1O[C@@H]([C@@H](CC)C(=O)O)CC[C@@H]1C)[C@H]1O[C@]2(C=C[C@H](NC(=O)C(C)C)[C@]3(CC[C@@](C)([C@H]4CC[C@](O)(CC)[C@H](C)O4)O3)O2)[C@H](C)C[C@@H]1C [(10 epi), reference compound]
- IC50 [1]: 400 nM
- SI MV-4-11 [1]: 9.5
- CC50 [2]: 3800 nM
- IC50 (Hs294T (human melanoma)): 4000 nM
- SI Hs294T (Hs294T (human melanoma)): 0.95

SMILES: CC[C@@H](C(=O)[C@@H](C)[C@@H](O)[C@H](C)[C@@H]1O[C@@H]([C@@H](CC)C(=O)O)CC[C@@H]1C)[C@H]1O[C@]2(C=C[C@@H](NC(=O)C(C)C)[C@]3(CC[C@@](C)([C@H]4CC[C@](O)(CC)[C@H](C)O4)O3)O2)[C@H](C)C[C@@H]1C [(10), C20-dehydroxy-C20-aminosalinomycin N-isobutyramide]
- anti-proliferative effect compared to the parent compound (cancer cells): several times more potent
- IC50 ([1]; MV4-11): 70 nM
- SI MV-4-11 [1]: 50.3
- CC50 at 72 h [3]: 3520 nM
- IC50 [4]: 670 nM
- SI LoVo [4]: 5.3
- IC50 (Hs294T (human melanoma); Hs 294T): 20 nM
- SI Hs294T (Hs294T (human melanoma)): 176.0
- IC50 [5]: 190 nM
- RI [5]: 0.3
- SI LoVo/DX [5]: 18.5
- IC50 (B16-F0 (murine melanoma); Mus musculus, B16F0): 70 nM
- SI B16-F0 (B16-F0 (murine melanoma)): 50.3
- IC50 ([6]; MCF7): 700 nM
- SI MCF-7 [6]: 5.0

SMILES: CC[C@@H](C(=O)[C@@H](C)[C@@H](O)[C@H](C)[C@@H]1O[C@@H]([C@@H](CC)C(=O)O)CC[C@@H]1C)[C@H]1O[C@]2(C=C[C@H](NC(=O)CCCCl)[C@]3(CC[C@@](C)([C@H]4CC[C@](O)(CC)[C@H](C)O4)O3)O2)[C@H](C)C[C@@H]1C [(12 epi), reference compound]
- IC50 [1]: 2500 nM
- SI MV-4-11 [1]: 2.9
- CC50 [2]: 7300 nM

SMILES: CC[C@@H](C(=O)[C@@H](C)[C@@H](O)[C@H](C)[C@@H]1O[C@@H]([C@@H](CC)C(=O)O)CC[C@@H]1C)[C@H]1O[C@]2(C=C[C@H](NC(=O)c3ccccc3)[C@]3(CC[C@@](C)([C@H]4CC[C@](O)(CC)[C@H](C)O4)O3)O2)[C@H](C)C[C@@H]1C [(15 epi), reference compound]
- IC50 [1]: 33 nM
- SI MV-4-11 [1]: 30
- CC50 [2]: 1000 nM
- IC50 [4]: 200 nM
- SI LoVo [4]: 5
- IC50 (Hs294T (human melanoma)): 80 nM
- SI Hs294T (Hs294T (human melanoma)): 12.5
- IC50 [5]: 630 nM
- RI [5]: 3
- SI LoVo/DX [5]: 1.6
- IC50 (B16-F0 (murine melanoma)): 400 nM
- SI B16-F0 (B16-F0 (murine melanoma)): 2.5
- IC50 [6]: 1100 nM
- SI MCF-7 [6]: 0.9

SMILES: CC[C@@H](C(=O)[C@@H](C)[C@@H](O)[C@H](C)[C@@H]1O[C@@H]([C@@H](CC)C(=O)O)CC[C@@H]1C)[C@H]1O[C@]2(C=C[C@@H](NC(=O)c3ccccc3)[C@]3(CC[C@@](C)([C@H]4CC[C@](O)(CC)[C@H](C)O4)O3)O2)[C@H](C)C[C@@H]1C [(15), C20-dehydroxy-C20-aminosalinomycin N-benzamide]
- anti-proliferative effect compared to the parent compound (cancer cells): several times more potent
- IC50 ([1]; MV4-11): 60 nM
- SI MV-4-11 [1]: 27.2
- CC50 at 72 h [3]: 1630 nM
- IC50 [4]: 280 nM
- SI LoVo [4]: 5.1
- IC50 (Hs294T (human melanoma); Hs 294T): 20 nM
- SI Hs294T (Hs294T (human melanoma)): 81.5
- IC50 [5]: 50 nM
- RI [5]: 0.2
- SI LoVo/DX [5]: 32.6
- IC50 (B16-F0 (murine melanoma); Mus musculus, B16F0): 20 nM
- SI B16-F0 (B16-F0 (murine melanoma)): 81.5
- IC50 ([6]; MCF7): 280 nM
- SI MCF-7 [6]: 5.8

SMILES: C#CCOC(=O)N[C@@H]1C=C[C@]2(O[C@H]([C@@H](CC)C(=O)[C@@H](C)[C@@H](O)[C@H](C)[C@@H]3O[C@@H]([C@@H](CC)C(=O)O)CC[C@@H]3C)[C@@H](C)C[C@H]2C)O[C@@]12CC[C@@](C)([C@H]1CC[C@](O)(CC)[C@H](C)O1)O2 [(22), C20-dehydroxy-C20-aminosalinomycin N-propargylcarbamate]
- anti-proliferative effect compared to the parent compound (cancer cells): tens of times more potent
- IC50 ([1]; MV4-11): 50 nM
- SI MV-4-11 [1]: 26.4
- CC50 at 72 h [3]: 1320 nM
- IC50 [4]: 300 nM
- SI LoVo [4]: 4.4
- IC50 (Hs294T (human melanoma); Hs 294T): 4.1 nM
- SI Hs294T (Hs294T (human melanoma)): 322.0
- IC50 [5]: 50 nM
- RI [5]: 0.2
- SI LoVo/DX [5]: 26.4
- IC50 (B16-F0 (murine melanoma); Mus musculus, B16F0): 20 nM
- SI B16-F0 (B16-F0 (murine melanoma)): 66.0
- IC50 ([6]; MCF7): 340 nM
- SI MCF-7 [6]: 3.9

SMILES: CCCCNC(=O)N[C@@H]1C=C[C@]2(O[C@H]([C@@H](CC)C(=O)[C@@H](C)[C@@H](O)[C@H](C)[C@@H]3O[C@@H]([C@@H](CC)C(=O)[O-])CC[C@@H]3C)[C@@H](C)C[C@H]2C)O[C@@]12CC[C@@](C)([C@H]1CC[C@](O)(CC)[C@H](C)O1)O2.[Na+] [(24), butylurea of C20-dehydroxy-C20-aminosalinomycin]
- IC50 ([1]; MV4-11): 1 nM
- SI MV-4-11 [1]: 800.0
- CC50 at 72 h [3]: 800 nM
- IC50 [4]: 70 nM
- SI LoVo [4]: 11.4
- IC50 (Hs294T (human melanoma); Hs 294T): 40 nM
- SI Hs294T (Hs294T (human melanoma)): 20.0
- IC50 [5]: 110 nM
- RI [5]: 1.6
- SI LoVo/DX [5]: 7.3
- IC50 (B16-F0 (murine melanoma); Mus musculus, B16F0): 50 nM
- SI B16-F0 (B16-F0 (murine melanoma)): 16.0
- IC50 ([6]; MCF7): 400 nM
- SI MCF-7 [6]: 2.0

SMILES: CC[C@@H](C(=O)[C@@H](C)[C@@H](O)[C@H](C)[C@@H]1O[C@@H]([C@@H](CC)C(=O)[O-])CC[C@@H]1C)[C@H]1O[C@]2(C=C[C@@H](NC(=O)NCCCCl)[C@]3(CC[C@@](C)([C@H]4CC[C@](O)(CC)[C@H](C)O4)O3)O2)[C@H](C)C[C@@H]1C.[Na+] [(25), 3-chloropropylurea of C20-dehydroxy-C20-aminosalinomycin]
- preferred effect against a type of cancer cells (cancer cells): preferred effect against biphenotypic leukaemia cells
- anti-proliferative effect compared to the parent compound (cancer cells): tens of times more potent
- IC50 ([1]; MV4-11): 0.3 nM
- SI MV-4-11 [1]: 4500.0
- CC50 at 72 h [3]: 1350 nM
- IC50 [4]: 20 nM
- SI LoVo [4]: 67.5
- IC50 (Hs294T (human melanoma); Hs 294T): 5.6 nM
- SI Hs294T (Hs294T (human melanoma)): 241.1
- IC50 [5]: 220 nM
- RI [5]: 11.0
- SI LoVo/DX [5]: 6.1
- IC50 (B16-F0 (murine melanoma); Mus musculus, B16F0): 10 nM
- SI B16-F0 (B16-F0 (murine melanoma)): 135.0
- IC50 ([6]; MCF7): 180 nM
- SI MCF-7 [6]: 7.5
